Results from PubChem BioAssay (NCI).
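How tested: cells in 96-well plates exposed to compound for 48 hours at five concentrations. TGI is the concentration that stops growth completely.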

How the values were obtained:
Test in all cases: NCI anticancer screen, dose series, 48 h
786-0 renal = tested on: 786-0 renal
A498 renal = tested on: A498 renal
A549 NSCLC = tested on: A549 NSCLC
ACHN renal = tested on: ACHN renal
BT-549 breast = tested on: BT-549 breast
CAKI-1 renal = tested on: CAKI-1 renal
CCRF-CEM leukemia = tested on: CCRF-CEM leukemia
COLO 205 colon = tested on: COLO 205 colon
DU-145 prostate = tested on: DU-145 prostate
EKVX NSCLC = tested on: EKVX NSCLC
HCT-116 colon = tested on: HCT-116 colon
HCT-15 colon = tested on: HCT-15 colon
HL-60(TB) leukemia = tested on: HL-60(TB) leukemia
HOP-62 NSCLC = tested on: HOP-62 NSCLC
HOP-92 NSCLC = tested on: HOP-92 NSCLC
HS 578T breast = tested on: HS 578T breast
HT29 colon = tested on: HT29 colon
IGROV1 ovarian = tested on: IGROV1 ovarian
K-562 leukemia = tested on: K-562 leukemia
KM12 colon = tested on: KM12 colon
LOX IMVI melanoma = tested on: LOX IMVI melanoma
M14 melanoma = tested on: M14 melanoma
MALME-3M melanoma = tested on: MALME-3M melanoma
MCF7 breast = tested on: MCF7 breast
MDA-MB-231 breast = tested on: MDA-MB-231 breast
MDA-MB-435 = tested on: MDA-MB-435
MDA-N = tested on: MDA-N
MOLT-4 leukemia = tested on: MOLT-4 leukemia
NCI-H226 lung = tested on: NCI-H226 lung
NCI-H23 lung = tested on: NCI-H23 lung
NCI-H522 lung = tested on: NCI-H522 lung
NCI/ADR-RES ovarian = tested on: NCI/ADR-RES ovarian
OVCAR-3 ovarian = tested on: OVCAR-3 ovarian
OVCAR-4 ovarian = tested on: OVCAR-4 ovarian
OVCAR-5 ovarian = tested on: OVCAR-5 ovarian
OVCAR-8 ovarian = tested on: OVCAR-8 ovarian
PC-3 prostate = tested on: PC-3 prostate
RPMI-8226 leukemia = tested on: RPMI-8226 leukemia
RXF 393 renal = tested on: RXF 393 renal
SF-268 CNS = tested on: SF-268 CNS
SF-295 CNS = tested on: SF-295 CNS
SK-MEL-2 melanoma = tested on: SK-MEL-2 melanoma
SK-MEL-28 melanoma = tested on: SK-MEL-28 melanoma
SK-MEL-5 melanoma = tested on: SK-MEL-5 melanoma
SK-OV-3 ovarian = tested on: SK-OV-3 ovarian
SN12C renal = tested on: SN12C renal
SNB-19 CNS = tested on: SNB-19 CNS
SNB-75 CNS = tested on: SNB-75 CNS
SR leukemia = tested on: SR leukemia
SW-620 colon = tested on: SW-620 colon
T-47D breast = tested on: T-47D breast
TK-10 renal = tested on: TK-10 renal
U251 CNS = tested on: U251 CNS
UACC-257 melanoma = tested on: UACC-257 melanoma
UO-31 renal = tested on: UO-31 renal
NCI-H460 lung = tested on: NCI-H460 lung
SF-539 CNS = tested on: SF-539 CNS
UACC-62 melanoma = tested on: UACC-62 melanoma
HCC-2998 colon = tested on: HCC-2998 colon

Compound: C=CCc1cc(-c2nc(=S)[nH][nH]2)ccc1N=NNc1ccc(C(=O)O)cc1
- TGI (786-0 renal): > 100 µM
- TGI (A498 renal): > 100 µM
- TGI (A549 NSCLC): > 100 µM
- TGI (ACHN renal): > 100 µM
- TGI (BT-549 breast): 73.8 µM
- TGI (CAKI-1 renal): > 100 µM
- TGI (CCRF-CEM leukemia): > 100 µM
- TGI (COLO 205 colon): 58 µM
- TGI (DU-145 prostate): > 100 µM
- TGI (EKVX NSCLC): > 100 µM
- TGI (HCT-116 colon): > 100 µM
- TGI (HCT-15 colon): > 100 µM
- TGI (HL-60(TB) leukemia): > 100 µM
- TGI (HOP-62 NSCLC): > 100 µM
- TGI (HOP-92 NSCLC): > 100 µM
- TGI (HS 578T breast): > 100 µM
- TGI (HT29 colon): > 100 µM
- TGI (IGROV1 ovarian): > 100 µM
- TGI (K-562 leukemia): > 100 µM
- TGI (KM12 colon): > 100 µM
- TGI (LOX IMVI melanoma): > 100 µM
- TGI (M14 melanoma): > 100 µM
- TGI (MALME-3M melanoma): > 100 µM
- TGI (MCF7 breast): > 100 µM
- TGI (MDA-MB-231 breast): > 100 µM
- TGI (MDA-MB-435): > 100 µM
- TGI (MDA-N): > 100 µM
- TGI (MOLT-4 leukemia): > 100 µM
- TGI (NCI-H226 lung): > 100 µM
- TGI (NCI-H23 lung): > 100 µM
- TGI (NCI-H522 lung): > 100 µM
- TGI (NCI/ADR-RES ovarian): > 100 µM
- TGI (OVCAR-3 ovarian): > 100 µM
- TGI (OVCAR-4 ovarian): > 100 µM
- TGI (OVCAR-5 ovarian): > 100 µM
- TGI (OVCAR-8 ovarian): > 100 µM
- TGI (PC-3 prostate): > 100 µM
- TGI (RPMI-8226 leukemia): > 100 µM
- TGI (RXF 393 renal): > 100 µM
- TGI (SF-268 CNS): > 100 µM
- TGI (SF-295 CNS): > 100 µM
- TGI (SK-MEL-2 melanoma): > 100 µM
- TGI (SK-MEL-28 melanoma): > 100 µM
- TGI (SK-MEL-5 melanoma): 60.1 µM
- TGI (SK-OV-3 ovarian): > 100 µM
- TGI (SN12C renal): > 100 µM
- TGI (SNB-19 CNS): > 100 µM
- TGI (SNB-75 CNS): > 100 µM
- TGI (SR leukemia): > 100 µM
- TGI (SW-620 colon): > 100 µM
- TGI (T-47D breast): 70.2 µM
- TGI (TK-10 renal): > 100 µM
- TGI (U251 CNS): > 100 µM
- TGI (UACC-257 melanoma): > 100 µM
- TGI (UO-31 renal): > 100 µM

Compound: Cc1cccc(C)c1NC(=O)C(Cc1c[nH]c2ccccc12)NC(=O)OCc1ccccc1 (stereo not given)
- TGI (786-0 renal): 53.6 µM
- TGI (A498 renal): 69.8 µM
- TGI (A549 NSCLC): 46.6 µM
- TGI (ACHN renal): 53.2 µM
- TGI (BT-549 breast): 65.3 µM
- TGI (CAKI-1 renal): 50.2 µM
- TGI (CCRF-CEM leukemia): 76.9 µM
- TGI (COLO 205 colon): 27.6 µM
- TGI (DU-145 prostate): 51.6 µM
- TGI (EKVX NSCLC): 45.3 µM
- TGI (HCT-116 colon): > 100 µM
- TGI (HCT-15 colon): > 100 µM
- TGI (HL-60(TB) leukemia): 44.3 µM
- TGI (HOP-62 NSCLC): > 100 µM
- TGI (HOP-92 NSCLC): 62.4 µM
- TGI (HS 578T breast): > 100 µM
- TGI (HT29 colon): 68.7 µM
- TGI (IGROV1 ovarian): 73 µM
- TGI (K-562 leukemia): > 100 µM
- TGI (KM12 colon): 57 µM
- TGI (LOX IMVI melanoma): 53.8 µM
- TGI (M14 melanoma): 31.7 µM
- TGI (MALME-3M melanoma): 52.8 µM
- TGI (MCF7 breast): 95.8 µM
- TGI (MDA-MB-231 breast): 48.2 µM
- TGI (MDA-MB-435): 48.5 µM
- TGI (MDA-N): 54.6 µM
- TGI (MOLT-4 leukemia): 63.7 µM
- TGI (NCI-H23 lung): 70.8 µM
- TGI (NCI-H460 lung): 43.6 µM
- TGI (NCI-H522 lung): 72.7 µM
- TGI (NCI/ADR-RES ovarian): 40.3 µM
- TGI (OVCAR-3 ovarian): 69.3 µM
- TGI (OVCAR-4 ovarian): 37.1 µM
- TGI (OVCAR-5 ovarian): 51.6 µM
- TGI (OVCAR-8 ovarian): 89.2 µM
- TGI (PC-3 prostate): 28.8 µM
- TGI (RPMI-8226 leukemia): 55.3 µM
- TGI (RXF 393 renal): 36.4 µM
- TGI (SF-268 CNS): > 100 µM
- TGI (SF-295 CNS): 38.9 µM
- TGI (SF-539 CNS): 41 µM
- TGI (SK-MEL-2 melanoma): 34.4 µM
- TGI (SK-MEL-28 melanoma): 57.1 µM
- TGI (SK-MEL-5 melanoma): 28.9 µM
- TGI (SK-OV-3 ovarian): 65.1 µM
- TGI (SN12C renal): 80.7 µM
- TGI (SNB-19 CNS): 51.6 µM
- TGI (SNB-75 CNS): 48.2 µM
- TGI (SR leukemia): 85.7 µM
- TGI (SW-620 colon): > 100 µM
- TGI (T-47D breast): 61.2 µM
- TGI (TK-10 renal): 43.7 µM
- TGI (U251 CNS): 47.2 µM
- TGI (UACC-257 melanoma): 34 µM
- TGI (UACC-62 melanoma): 41.3 µM
- TGI (UO-31 renal): 32.9 µM

Compound: COC1=CC(=O)c2c(c(-c3nc(C)cs3)cn2C)C1=O
- TGI (786-0 renal): > 100 µM
- TGI (A498 renal): 28.7 µM
- TGI (A549 NSCLC): 12 µM
- TGI (ACHN renal): > 100 µM
- TGI (BT-549 breast): > 57.4 µM
- TGI (CAKI-1 renal): 21.3 µM
- TGI (CCRF-CEM leukemia): 35.1 µM
- TGI (COLO 205 colon): 37.6 µM
- TGI (DU-145 prostate): 18.3 µM
- TGI (EKVX NSCLC): 33.6 µM
- TGI (HCC-2998 colon): 18 µM
- TGI (HCT-116 colon): 30.8 µM
- TGI (HCT-15 colon): 14.7 µM
- TGI (HL-60(TB) leukemia): 9.44 µM
- TGI (HOP-62 NSCLC): 25.3 µM
- TGI (HOP-92 NSCLC): 43.2 µM
- TGI (HS 578T breast): 8.48 µM
- TGI (HT29 colon): 21 µM
- TGI (IGROV1 ovarian): 20.5 µM
- TGI (K-562 leukemia): 20.6 µM
- TGI (KM12 colon): 26.7 µM
- TGI (LOX IMVI melanoma): 22.8 µM
- TGI (M14 melanoma): 7.39 µM
- TGI (MCF7 breast): 10.9 µM
- TGI (MDA-MB-231 breast): 72.6 µM
- TGI (MDA-MB-435): 1.4 µM
- TGI (MDA-N): 2.7 µM
- TGI (MOLT-4 leukemia): > 80.9 µM
- TGI (NCI-H226 lung): 77.2 µM
- TGI (NCI-H23 lung): 6.92 µM
- TGI (NCI-H460 lung): 3.82 µM
- TGI (NCI-H522 lung): 7.26 µM
- TGI (NCI/ADR-RES ovarian): 31 µM
- TGI (OVCAR-3 ovarian): 6.09 µM
- TGI (OVCAR-4 ovarian): 68.7 µM
- TGI (OVCAR-5 ovarian): > 43.9 µM
- TGI (OVCAR-8 ovarian): > 49.6 µM
- TGI (PC-3 prostate): > 55.4 µM
- TGI (RPMI-8226 leukemia): > 22.1 µM
- TGI (RXF 393 renal): 77.8 µM
- TGI (SF-268 CNS): 39.6 µM
- TGI (SF-295 CNS): 9.72 µM
- TGI (SF-539 CNS): 9.94 µM
- TGI (SK-MEL-2 melanoma): 10.8 µM
- TGI (SK-MEL-28 melanoma): 16.1 µM
- TGI (SK-MEL-5 melanoma): 2.88 µM
- TGI (SK-OV-3 ovarian): > 100 µM
- TGI (SN12C renal): 27 µM
- TGI (SNB-19 CNS): > 100 µM
- TGI (SNB-75 CNS): 5.42 µM
- TGI (SR leukemia): > 50.8 µM
- TGI (SW-620 colon): 94.6 µM
- TGI (T-47D breast): 53.4 µM
- TGI (TK-10 renal): > 100 µM
- TGI (U251 CNS): > 100 µM
- TGI (UACC-257 melanoma): 4.44 µM
- TGI (UACC-62 melanoma): 7.74 µM
- TGI (UO-31 renal): > 91.2 µM
